# Experimental data published in patent US20170137458A1, “OXYSTEROLS FOR USE IN THE TREATMENT AND PREVENTION OF DISEASES CAUSED BY VIRUSES” (priority 2014, published 2017).
# pEC50: −log10 of the molar value. Where two headings read alike, the source gives them in different places.
# Key:
# [1] = system: human rotavirus (strain Wa); assay: Rotavirus yield reduction assay; format: cell-based
# Experimental: The cells were treated at 37° C. with 25-, 27-, 7α-, 7β-hydroxycholesterol or 7-ketocholesterol at 5.6 μM for 20 hours, then washed with medium and infected with the human rotavirus at an MOI of 0.02 (strain Wa) activated with trypsin. After one hour, the cells were washed and fresh medium was added supplemented with 0.5 μg/ml of porcine trypsin. […] The assay was performed in triplicate and the results were confirmed on Caco2 cells. In an alternative protocol, the MA104 cells were treated with oxysterols—at the concentration indicated above—after the viral inoculum. The one-way variance analysis (ANOVA), followed by the Bonferroni test, was used to evaluate the statistical significance of the virus titre differences between the treated and non-treated samples. The significance was fixed at 95%.
# The results of the pre-treatment assays are illustrated in FIGS. 5 (MA104 cells) and 6 (Caco2 cells).
# [2] = system: PsV of HPV-16; assay: microbe, parasite or virus in culture; format: cell-based, human papillomavirus
# [3] = system: TLR3; assay: Quantitative real time RT-PCR of TLR-3 in Caco2 cells; format: cell-based, human; settings: CaCo2 intestinal cells, 1.9 μM, 30 minutes to 6 hours
# Experimental: The Caco2 cells were cultivated in DMEM medium containing 10% serum and seeded in 25 cm^2 flasks (8 million confluence cells). The next day the cells were treated, in DMEM medium containing 2% serum, with 1.9 μM 25OHC or 27OHC (dissolved in ethanol) for 30 minutes, 1, 2, 3, 4, 5 or 6 hours. Extraction of the total RNA was performed using the TRIzol Reagent (Applied Biosystems, Monza, Italy) and the quantity and purity (A260/A280 ratio) of the extracted RNA were spectrophotometrically measured. Subsequently, 2 μg of RNA were retrotranscribed using the High-Capacity cDNA Reverse Transcription Kit (Applied Biosystems). Quantitative RT-PCR was performed with 30 ng of cDNA using the “TaqMan Gene Expression Assay kits” for TLR-3 and β-actin, TaqMan Fast Universal PCR Master Mix, and 7500 Fast Real-Time PCR System (Applied Biosystems). For each gene considered, the threshold cycle (Ct) was determined and the results were normalized using β-actin as a reference gene. The relative quantification was performed using a mathematical method previously published (29). In FIGS. 1a-1b, the results are reported as increment of the genic expression (Fold change, Fc) of the treated samples with respect to the controls.
# [4] = system: rotavirus; assay: Assay on adhesion of the rotavirus to the cell surface; format: cell-based; settings: MA104 cells, 5.6 μM for 20 hours, MOI 3
# Experimental: For the assays on bonding of the rotavirus to the surface of MA104 cells, monolayers of confluent cells in plates with 24 wells were treated at 37° C. with 25- or 27-hydroxycholesterol at 1.9 μM and 5.6 μM for 20 hours. The cells were then washed and cooled on ice for 20 minutes. The infectivity of the virus was activated with 5 μg of porcine trypsin (Sigma)/ml for 30 minutes at 37° C. The activated virus, which had been cooled to 4° C., was left to adhere to the cells in ice for 1 hour at an MOI of 3. Lastly, the cells were washed with cold MEM; cold MEM was then added to the cells, which underwent two freezing-thawing cycles, in order to allow detachment of the viral particles bonded to the cell surface; the cell lysate was incubated at 37° C. for 30 minutes in the presence of […] of porcine trypsin/ml, subsequently clarified by means of centrifugation (1200 rpm, 10 minutes).
# The titre of the virus population bound to the cells was determined by means of indirect immunocytochemistry performed on monolayers of MA104 cells infected with serial dilutions of the virus collected. The results are illustrated by FIG. 9; in the graph, the titre of the viral population bound to the surface of the treated cells is expressed in percentage terms with respect to the non-treated control and the error bars represent the standard deviation. […]
# [5] = system: HPV PsV (protein L1); assay: Assay for adhesion of the papillomavirus to the cell surface: Western blot analysis; format: cell-based, human papillomavirus; settings: Hela cells treated 16 hours, PsV 4 hours at 4° C.
# Text: L1 was detected using the murine monoclonal antibody (Ab30908, Abcam, Cambridge, UK) at a dilution of 1:2000, followed by secondary antibody IgG-HRP (Santa Cruz Biotechnology Inc.). The actin was detected using an anti-actin murine monoclonal antibody (MAB1501R, Millipore), followed by secondary antibody IgG-HRP (Santa Cruz Biotechnology Inc.).
# [6] = system: LXR; settings: cited from earlier work
# [7] = system: adenovirus 5; settings: for example the adenovirus 5; cited from earlier work
# [8] = system: rhinovirus; settings: cited from earlier work
# [9] = system: human rhinovirus 1A; assay: Rhinovirus yield reduction assay; settings: HeLa cells, 5.6 μM after infection, collected 5 days after the infection
# Experimental: Each well was inoculated with 200 μl of a stock of human rhinovirus 1A containing approximately 30 PFU per well and incubated for 1 hour. […] The infected cells and the supernatants were collected 5 days after the infection (when a complete CPE was visible), and titred by means of the standard plaque method, as described above.
# [10] = system: human rotavirus Wa; assay: Infectivity assay for rotavirus, MA104 cells, strain Wa
# Experimental: (§1) The strains of human rotavirus Wa (ATCC® VR-2018), WI61 (ATCC® VR-2551), HRV 408 (ATCC® VR-2273), HRV 248 (ATCC® VR-2274) and DS-1 (ATCC® VR-2550) were acquired from the American Tissue Culture Collection (ATCC); the viruses were activated with 5 μg/ml porcine pancreatic trypsin of type IX (Sigma, St. Louis, Mo.) for 30 minutes at 37° C. and propagated in MA104 cells using MEM containing 0.5 μg of trypsin per ml as described previously (27).
# (§2) The antiviral effectiveness of the oxysterols of the invention was determined by means of infectivity inhibition assay. The assays were performed with confluent monolayers of MA104 cells seeded in plates with 96 wells, as described previously (28). […] The control samples were prepared by treating the cells with culture medium with the addition of equal volumes of ethanol. The cells were then washed with medium, and the rotavirus infection was performed at a multiplicity of infection (MOI) of 0.02. After the infection, the cells were washed with medium and incubated at 37° C. in an incubator humidified at 5% (vol/vol) CO2-95% (vol/vol) of air. After 16 hours, the infected cells were fixed with a cold acetone-methanol mixture (50:50), and the virus titres were determined by means of indirect immunocytochemistry. The inhibition of the virus infectivity was expressed as a percentage comparing the mean number of infective events in the treated and non-treated samples±the standard deviations. Where possible, the values of the oxysterol concentrations able to determine 50% or 90% of the antiviral effect (EC50 and EC90 respectively) were calculated by means of regression analysis using the dose-response curves generated by the experimental data, with the use of PRISM 5.00 (GraphPad Software, San Diego, Calif., USA).
# [11] = system: human rotavirus DS-1; assay: Infectivity assay for rotavirus, MA104 cells, strain DS-1
# Experimental: as §1, §2
# [12] = system: human rotavirus WI61; assay: Infectivity assay for rotavirus, MA104 cells, strain WI61
# Experimental: as §1, §2
# [13] = system: human rotavirus HRV 408; assay: Infectivity assay for rotavirus, MA104 cells, strain HRV 408
# Experimental: as §1, §2
# [14] = system: human rhinovirus 1A; assay: Infectivity assay with rhinovirus (plaque count, HeLa cells)
# Experimental: The human rhinovirus 1A (ATCC® VR-1559) was acquired from ATCC. The virus was propagated in HeLa cells, at 33° C. with 5% of CO2. When the cytopathic effect (CPE) had fully developed, cells and supernatants were collected, frozen and thawed three times, clarified and divided into aliquots. The viruses were kept at −70° C. The rhinovirus titres were determined by means of the standard plaque assay. In short, the HeLa cells were seeded 2 days prior to the infection in plates with 96 wells, reaching 60%-70% confluence at the time of the infection. The viral suspension was serially diluted in DMEM supplemented with 2% fetal bovine serum and inoculated; the infected wells were incubated at 33° C. for 1 hour, allowing the viruses to adhere and enter the cells. The cells were subsequently washed with medium and covered with a 1:1 mixture of 1.6% SeaPlaque agarose (BioWhittaker Molecular Applications) and DMEM 2X [26.76 g DMEM (Gibco BRL), 20 ml of L-glutamine (Gibco BRL), 4.4 g of sodium bicarbonate (Sigma, St. Louis, Mo.), FBS 40 ml (Sigma, St. Louis, Mo.) and 1000 ml of water]. The plates were incubated at 33° C. for 3 days. At the end of the incubation, the plates were fixed with 7.5% formaldehyde (Fluka) and coloured with crystal violet (Sigma, St. Louis, Mo.). The number of plaques formed was then counted; the virus titres were expressed in terms of plaque-forming units per ml (PFU/ml).
# The HeLa cells, kept in DMEM supplemented with 10% FBS and 1% Zell Shield, were seeded (at 8×10^4 cells/well) in plates with 24 wells. The medium was removed and the cells were infected with 200 microlitres/well containing approximately 30 PFU of a stock of human rhinovirus 1A. The infected cells were incubated at 33° C. for 1 h, allowing the virus to adhere and enter the cells. […] The plates were incubated at 33° C. for 5 days. After the incubation, the plates were fixed with formaldehyde at 7.5% (Fluka), coloured with crystal violet (Sigma, St. Louis, Mo.) and the number of plaques formed was counted. The oxysterol concentration values able to determine 50% or 90% of the antiviral effect (EC50 and EC90 respectively) were calculated by means of regression analysis using the dose-response curves generated by the experimental data, using PRISM 5.00 (GraphPad Software, San Diego, Calif., USA).
# [15] = system: human rotavirus; assay: Target identification by siRNA sensitization (TISS), human rotavirus, Caco2 cells; settings: oxysterol at its EC50
# Experimental: This mechanism of action vis-à-vis the rotavirus was therefore investigated, performing a target identification assay by means of sensitization with short interfering RNA (siRNA). The Caco2 cells (for the experiments with human rotavirus) or the HeLa cells (for the experiments with human papillomavirus) were seeded in a plate with 24 wells; during seeding, the cells were transfected with siRNA specific for OSBP and VAPA (at a concentration of 20 nM). […] After one day, the medium was removed and the cells inoculated with the respective viruses in the same time, temperature and MOI conditions described in the protocols of the infectivity or neutralization assays. The number of infected cells was evaluated as described in the preceding paragraphs.
# [16] = pre-treatment assay, 20 hours prior to the infection
compound,measurement,setting,value
"C[C@H](CCCC(C)(C)O)[C@H]1CC[C@H]2[C@@H]3CC=C4C[C@@H](O)CC[C@]4(C)[C@H]3CC[C@]12C [25OHC, 25-hydroxycholesterol]",production of virus progenies,"[1]; Caco2 cells, pre-treatment 5.6 μM for 20 hours, collected 48 hours after infection",significantly limit (p<0.05) the production of virus progenies
same,production of virus progenies,"[1]; MA104 cells, post-infection treatment 5.6 μM",confirm the in vitro effectiveness
same,production of virus progenies,"[1]; MA104 cells, pre-treatment 5.6 μM for 20 hours, collected 48 hours after infection",significantly limit (p<0.05) the production of virus progenies
same,pEC50,"[2]; C33A cells, treated 16 hours before PsV, read-out: EC50",5.69
same,pEC50,"[2]; Human papillomavirus, HeLa",5.66
same,pEC50,"[2]; Human papillomavirus, SiHa",4.83
same,TLR3 expression,[3],marked hyperexpression of TLR3
same,titre of the viral population bound to the cell surface,[4],reduce in a statistically significant manner (p<0.05) the ability of the virus to adhere to the cell surface
same,adhesion of the PsV to the cell surface (L1 Western blot),[5],not able to inhibit adhesion of the PsV to the cell surface
same,LXR ligand activity,[6],optimal ligands of LXR
same,effectiveness on naked viruses,[7],not effective on naked viruses
same,replication of the genoma of the rhinovirus,[8],able to inhibit replication of the genoma
same,rhinovirus entry into the host cell,[8],not entry into the host cell
same,production of viral progenies,[9],totally inhibit the production of viral progenies
same,pEC50,[10],6.80
same,EC90,[10],1370 nM
same,pEC50,[11],6.57
same,EC90,[11],5770 nM
same,pEC50,[12],7.05
same,EC90,[12],280 nM
same,pEC50,[13],6.92
same,EC90,[13],420 nM
same,pEC50,[14]; post-infection treatment assay,6.80
same,EC90,[14]; post-infection treatment assay,410 nM
same,pEC50,[14]; [16],6.54
same,EC90,[14]; [16],540 nM
same,antiviral activity in cells with OSBP silenced,[15]; OSBP siRNA 20 nM,higher
same,antiviral activity in cells with VAP-A silenced,[15]; VAPA siRNA 20 nM,higher
